Active and inactive are the calls of the source.
How the values were obtained:
[1] = luciferase reporter signal suppression in cells – H4 neuroglioma cells, luminescence, dose response (AID 1990); assay type: functional, cell-based
[2] = Luminescence Cell-Based Dose Response HTS to Identify Inhibitors of 5'UTR Stem-Loop Driven Prion Protein mRNA Translation in H4 Neuroglioblastoma Cells. [Related pubchem assays: 1827 (Project Summary), 1813 (Primary HTS)]; assay type: functional
[3] = alpha-synuclein stem-loop luciferase translation blockers – H4 neuroglioma cells, luminescence, confirmation (AID 1988); assay type: functional, cell-based
HEK293 = assay: EBV LMP1 TES2 canonical NF-kB signalling blockers – cell-based, HEK293, luciferase, cherry-pick, dose response (AID 588343); assay type: functional; settings: Homo sapiens
H9c2 = assay: cells; assay type: functional, cell-based; settings: Rattus norvegicus, H9c2, Myocardium;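 note: confirmatory concentration-response retest of ultra-high-throughput screening hits for modulation of myocardial damage; cell death induced by hydrogen peroxide oxidative stress; compound pretreatment for 60 min then peroxide exposure for 2 h; potency is for protecting the cells against peroxide damage rather than for killing them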
[4] = HEK-293T viability loss after treatment – luminescence, T-cell screen hits, cytotoxicity control for TCR NF-kB inhibitor project, dose response (AID 489026); assay type: functional, cell-based;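 note: cells exposed to compound about 14 hours before the viability readout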
[5] = microbe, parasite or virus in culture; assay type: functional; settings: Mycobacterium tuberculosis
BJ [6] = assay: BJ-TERT fibroblast viability loss – cell-based, RAS-independent, luminescence, dose response (AID 1933); assay type: functional; settings: Homo sapiens
BJ [7] = assay: cells; assay type: functional, cell-based; settings: Homo sapiens
BJ [8] = assay: BJ-TERT-LT-ST fibroblast viability loss – cell-based, RAS-independent, luminescence, dose response (AID 1935); assay type: functional; settings: Homo sapiens;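 note: BJ fibroblasts immortalized with TERT plus LT and ST oncogenes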
[9] = DRD fibroblast viability loss – cell-based, non-viral oncogenic, luminescence, dose response (AID 1934); assay type: functional; settings: Homo sapiens
[10] = biological target: T1, Replicative DNA helicase DnaB (Mycobacterium tuberculosis, UniProt P9WMR3); assay: DnaB intein splicing inhibitors, dose response, biochemical, cell-free fluorescence (AID 449749); assay type: functional
T1 sequence (P9WMR3 whole entry): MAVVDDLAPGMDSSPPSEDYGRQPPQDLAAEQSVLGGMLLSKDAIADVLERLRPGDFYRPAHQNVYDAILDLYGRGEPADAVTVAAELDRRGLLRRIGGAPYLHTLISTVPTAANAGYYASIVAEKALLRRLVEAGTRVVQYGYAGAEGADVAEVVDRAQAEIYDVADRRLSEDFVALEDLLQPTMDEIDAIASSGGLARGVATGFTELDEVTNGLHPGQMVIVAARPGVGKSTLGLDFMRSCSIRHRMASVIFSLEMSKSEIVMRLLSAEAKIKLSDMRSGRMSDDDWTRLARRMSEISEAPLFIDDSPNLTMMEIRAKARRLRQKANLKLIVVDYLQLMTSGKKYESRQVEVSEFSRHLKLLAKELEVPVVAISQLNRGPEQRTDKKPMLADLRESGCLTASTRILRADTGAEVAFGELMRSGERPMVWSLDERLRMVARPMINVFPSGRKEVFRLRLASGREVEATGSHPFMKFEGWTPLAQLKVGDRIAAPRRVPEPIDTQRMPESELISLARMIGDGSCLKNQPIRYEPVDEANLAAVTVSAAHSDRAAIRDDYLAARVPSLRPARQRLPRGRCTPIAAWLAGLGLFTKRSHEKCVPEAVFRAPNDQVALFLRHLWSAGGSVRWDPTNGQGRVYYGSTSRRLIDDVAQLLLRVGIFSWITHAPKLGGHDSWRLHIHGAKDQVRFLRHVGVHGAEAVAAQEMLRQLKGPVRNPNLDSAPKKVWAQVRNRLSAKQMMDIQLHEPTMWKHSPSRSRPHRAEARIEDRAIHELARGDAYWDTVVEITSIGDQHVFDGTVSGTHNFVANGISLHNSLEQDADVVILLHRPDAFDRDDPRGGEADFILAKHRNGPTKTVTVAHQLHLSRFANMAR

Protein RecA = biological target: T2, Protein RecA (Mycobacterium tuberculosis, UniProt P9WHJ3); assay: Fluorescence Cell-Free Homogeneous Dose Retest to Identify Inhibitors of RecA-Intein Splicing Activity. [Related pubchem assays (depositor defined):AID2097, AID2223, AID489010, AID492950]; assay type: functional
T2 sequence (P9WHJ3 whole entry): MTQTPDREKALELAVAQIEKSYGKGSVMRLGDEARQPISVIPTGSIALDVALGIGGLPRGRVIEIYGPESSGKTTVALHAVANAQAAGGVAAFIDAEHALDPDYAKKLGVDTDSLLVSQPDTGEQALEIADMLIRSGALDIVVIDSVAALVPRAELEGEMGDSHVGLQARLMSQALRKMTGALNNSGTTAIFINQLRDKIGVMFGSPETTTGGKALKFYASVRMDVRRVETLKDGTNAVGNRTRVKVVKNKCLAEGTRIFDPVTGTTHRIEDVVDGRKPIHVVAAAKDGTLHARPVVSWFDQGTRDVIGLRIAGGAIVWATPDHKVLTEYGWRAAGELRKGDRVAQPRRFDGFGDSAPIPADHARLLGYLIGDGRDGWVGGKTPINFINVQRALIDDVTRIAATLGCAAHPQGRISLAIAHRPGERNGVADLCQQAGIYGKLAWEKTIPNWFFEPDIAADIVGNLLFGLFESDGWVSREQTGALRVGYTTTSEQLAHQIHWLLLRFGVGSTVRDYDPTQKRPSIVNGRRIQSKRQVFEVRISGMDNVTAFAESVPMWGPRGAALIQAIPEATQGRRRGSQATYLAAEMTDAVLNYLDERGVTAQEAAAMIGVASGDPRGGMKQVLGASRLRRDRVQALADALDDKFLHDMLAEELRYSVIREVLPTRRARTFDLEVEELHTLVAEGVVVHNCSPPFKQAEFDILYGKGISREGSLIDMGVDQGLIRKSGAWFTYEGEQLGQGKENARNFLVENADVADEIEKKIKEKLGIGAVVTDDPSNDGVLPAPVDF

[11] = system: Streptococcus sp. 'group A'; assay: Streptococcus pyogenes SK(-)GAS viability under kanamycin – luminescence, BacTiterGlo, confirmation, counter-screen for streptokinase expression inhibitor project, dose response (AID 1900); assay type: functional, organism-based
Streptococcus = assay: GAS UMAA2166 growth inhibition – luminescence, BacTiterGlo, counter-screen for streptokinase expression inhibitor project, dose response (AID 1915); assay type: functional, organism-based;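 note: potency for reduction of bacterial viability or growth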
Vero = assay: cells; assay type: functional; settings: Chlorocebus sabaeus
INS1 = assay: INS-1E survival protection against cytokine death – cell-based, luminescence, retest, dose response (AID 449756); assay type: functional; settings: Rattus norvegicus;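 note: cell death triggered by IL-1 beta plus TNF-alpha plus IFN-gamma mixture; protective hits raise ATP signal compared with cytokine alone wells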
[12] = biological target: T3, Polyadenylate-binding protein 1 (Homo sapiens, UniProt P11940); assay: MLLE binding blockers, Cy5 peptide tracer – biochemical, fluorescence polarization, Cy5-PAM2 peptide, secondary, miRNA deadenylation inhibitor project, dose response (AID 602260); assay type: functional; settings: read-out: IC50_Mean
[13] = biological target: T3, Polyadenylate-binding protein 1; assay: MLLE domain peptide-binding blockers, IC50 – biochemical, fluorescence polarization, FITC-PAM2 peptide, dose response (AID 602259); assay type: functional; settings: read-out: IC50_Mean
[14] = Trypanosoma cruzi growth suppression in host cells – NIH3T3 host cells, beta-gal luminescence, confirmation (AID 2044); assay type: functional, cell-based;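 note: intracellular parasites grown in NIH/3T3 mouse fibroblasts as host cells; luminescent beta-galactosidase reporter signal from transgenic T. cruzi replicating inside host cells; inhibitors lower the luminescence signal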
[15] = NIH3T3 cell viability loss – ATP luminescence, mouse fibroblasts, counter-screen, dose response (AID 2010); assay type: functional, cell-based;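 note: cells exposed to compound for about 90 hours before reading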
[16] = blockers of HIV-1 envelope-mediated cell-cell fusion – cherry-pick, dose response (AID 652057); assay type: functional, cell-based
[17] = blockers of HIV-1 ZM109 envelope-driven cell-cell fusion – HeLa effector, CEM target cells, luciferase, cherry-pick, dose response (AID 652058); assay type: functional, cell-based;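 note: luciferase signal from HIV-1 Env mediated cell-cell fusion of effector and target cells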
[18] = biological target: Luciferin 4-monooxygenase (Photinus pyralis, UniProt P08659); assay: inhibition of purified Photinus pyralis luciferase – biochemical, luminescence, dose response (AID 1891)
[19] = Luminescence Cell-Based Dose Confirmation HTS to Identify Inhibitors of Platelet Dense Granule Release. [Related pubchem assays: 1663 (Primary HTS), 1678 (Summary of Project)]; assay type: functional
[20] = viability of PTEN-deleted HCT116 cells – cell-based, HCT116 PTEN knockout, dose response (AID 1047); assay type: functional;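 note: HCT116 colon tumor cells with PTEN knocked out; cells exposed to compound for 60 hours before readout; potency for loss of cell viability measured by luminescence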
[21] = viability of HCT116 lacking mutant beta-catenin – cell-based, human colon tumor, dose response (AID 1045); assay type: functional;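 note: HCT116 colon tumor cells with beta catenin knocked out; cells exposed to compound for 60 hours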
Cytochrome P450 2C19 = Cytochrome P450 2C19 (Homo sapiens, UniProt P33261); assay: Cytochrome panel assay with activity outcomes. Panel member name: p450-cyp2c19 Compounds with AC50 equal or less than 10 uM are considered active; assay type: functional; settings: read-out: AC50
Fatty acid synthase [22] = biological target: T4, Fatty acid synthase (Homo sapiens, UniProt P49327); assay: inhibition of human FAS-TE enzyme activity – biochemical, endpoint fluorescence intensity, uHTS hits, dose response (AID 624327); assay type: functional;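 note: fluorescence from hydrolysis of an O-methyl fluorescein acyl ester substrate by the enzyme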
Fatty acid synthase [23] = biological target: T4, Fatty acid synthase; assay: inhibition of human FAS-TE enzyme activity – biochemical, kinetic fluorescence intensity, dose response (AID 624326); assay type: functional;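 note: rate of fluorescence rise from hydrolysis of a fluorogenic O-methyl fluorescein ester substrate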

T3 sequence (P11940 whole entry, the tested form may be a part): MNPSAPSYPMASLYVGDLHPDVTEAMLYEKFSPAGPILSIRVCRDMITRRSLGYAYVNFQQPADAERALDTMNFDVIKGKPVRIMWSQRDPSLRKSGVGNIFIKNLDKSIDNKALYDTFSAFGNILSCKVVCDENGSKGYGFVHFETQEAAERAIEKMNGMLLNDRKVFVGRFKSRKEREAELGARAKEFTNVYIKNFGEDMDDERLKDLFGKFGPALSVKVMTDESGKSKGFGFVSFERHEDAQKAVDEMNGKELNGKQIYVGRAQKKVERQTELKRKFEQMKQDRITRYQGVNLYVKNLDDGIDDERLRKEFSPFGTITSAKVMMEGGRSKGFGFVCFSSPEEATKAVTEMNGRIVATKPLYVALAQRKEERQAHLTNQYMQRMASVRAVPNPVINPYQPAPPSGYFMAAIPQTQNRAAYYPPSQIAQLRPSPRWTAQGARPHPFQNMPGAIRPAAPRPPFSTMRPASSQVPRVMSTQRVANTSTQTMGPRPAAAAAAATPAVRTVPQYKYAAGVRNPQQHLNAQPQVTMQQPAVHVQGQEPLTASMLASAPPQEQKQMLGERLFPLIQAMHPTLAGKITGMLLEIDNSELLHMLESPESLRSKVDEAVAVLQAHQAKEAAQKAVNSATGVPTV
T4 sequence (P49327 whole entry): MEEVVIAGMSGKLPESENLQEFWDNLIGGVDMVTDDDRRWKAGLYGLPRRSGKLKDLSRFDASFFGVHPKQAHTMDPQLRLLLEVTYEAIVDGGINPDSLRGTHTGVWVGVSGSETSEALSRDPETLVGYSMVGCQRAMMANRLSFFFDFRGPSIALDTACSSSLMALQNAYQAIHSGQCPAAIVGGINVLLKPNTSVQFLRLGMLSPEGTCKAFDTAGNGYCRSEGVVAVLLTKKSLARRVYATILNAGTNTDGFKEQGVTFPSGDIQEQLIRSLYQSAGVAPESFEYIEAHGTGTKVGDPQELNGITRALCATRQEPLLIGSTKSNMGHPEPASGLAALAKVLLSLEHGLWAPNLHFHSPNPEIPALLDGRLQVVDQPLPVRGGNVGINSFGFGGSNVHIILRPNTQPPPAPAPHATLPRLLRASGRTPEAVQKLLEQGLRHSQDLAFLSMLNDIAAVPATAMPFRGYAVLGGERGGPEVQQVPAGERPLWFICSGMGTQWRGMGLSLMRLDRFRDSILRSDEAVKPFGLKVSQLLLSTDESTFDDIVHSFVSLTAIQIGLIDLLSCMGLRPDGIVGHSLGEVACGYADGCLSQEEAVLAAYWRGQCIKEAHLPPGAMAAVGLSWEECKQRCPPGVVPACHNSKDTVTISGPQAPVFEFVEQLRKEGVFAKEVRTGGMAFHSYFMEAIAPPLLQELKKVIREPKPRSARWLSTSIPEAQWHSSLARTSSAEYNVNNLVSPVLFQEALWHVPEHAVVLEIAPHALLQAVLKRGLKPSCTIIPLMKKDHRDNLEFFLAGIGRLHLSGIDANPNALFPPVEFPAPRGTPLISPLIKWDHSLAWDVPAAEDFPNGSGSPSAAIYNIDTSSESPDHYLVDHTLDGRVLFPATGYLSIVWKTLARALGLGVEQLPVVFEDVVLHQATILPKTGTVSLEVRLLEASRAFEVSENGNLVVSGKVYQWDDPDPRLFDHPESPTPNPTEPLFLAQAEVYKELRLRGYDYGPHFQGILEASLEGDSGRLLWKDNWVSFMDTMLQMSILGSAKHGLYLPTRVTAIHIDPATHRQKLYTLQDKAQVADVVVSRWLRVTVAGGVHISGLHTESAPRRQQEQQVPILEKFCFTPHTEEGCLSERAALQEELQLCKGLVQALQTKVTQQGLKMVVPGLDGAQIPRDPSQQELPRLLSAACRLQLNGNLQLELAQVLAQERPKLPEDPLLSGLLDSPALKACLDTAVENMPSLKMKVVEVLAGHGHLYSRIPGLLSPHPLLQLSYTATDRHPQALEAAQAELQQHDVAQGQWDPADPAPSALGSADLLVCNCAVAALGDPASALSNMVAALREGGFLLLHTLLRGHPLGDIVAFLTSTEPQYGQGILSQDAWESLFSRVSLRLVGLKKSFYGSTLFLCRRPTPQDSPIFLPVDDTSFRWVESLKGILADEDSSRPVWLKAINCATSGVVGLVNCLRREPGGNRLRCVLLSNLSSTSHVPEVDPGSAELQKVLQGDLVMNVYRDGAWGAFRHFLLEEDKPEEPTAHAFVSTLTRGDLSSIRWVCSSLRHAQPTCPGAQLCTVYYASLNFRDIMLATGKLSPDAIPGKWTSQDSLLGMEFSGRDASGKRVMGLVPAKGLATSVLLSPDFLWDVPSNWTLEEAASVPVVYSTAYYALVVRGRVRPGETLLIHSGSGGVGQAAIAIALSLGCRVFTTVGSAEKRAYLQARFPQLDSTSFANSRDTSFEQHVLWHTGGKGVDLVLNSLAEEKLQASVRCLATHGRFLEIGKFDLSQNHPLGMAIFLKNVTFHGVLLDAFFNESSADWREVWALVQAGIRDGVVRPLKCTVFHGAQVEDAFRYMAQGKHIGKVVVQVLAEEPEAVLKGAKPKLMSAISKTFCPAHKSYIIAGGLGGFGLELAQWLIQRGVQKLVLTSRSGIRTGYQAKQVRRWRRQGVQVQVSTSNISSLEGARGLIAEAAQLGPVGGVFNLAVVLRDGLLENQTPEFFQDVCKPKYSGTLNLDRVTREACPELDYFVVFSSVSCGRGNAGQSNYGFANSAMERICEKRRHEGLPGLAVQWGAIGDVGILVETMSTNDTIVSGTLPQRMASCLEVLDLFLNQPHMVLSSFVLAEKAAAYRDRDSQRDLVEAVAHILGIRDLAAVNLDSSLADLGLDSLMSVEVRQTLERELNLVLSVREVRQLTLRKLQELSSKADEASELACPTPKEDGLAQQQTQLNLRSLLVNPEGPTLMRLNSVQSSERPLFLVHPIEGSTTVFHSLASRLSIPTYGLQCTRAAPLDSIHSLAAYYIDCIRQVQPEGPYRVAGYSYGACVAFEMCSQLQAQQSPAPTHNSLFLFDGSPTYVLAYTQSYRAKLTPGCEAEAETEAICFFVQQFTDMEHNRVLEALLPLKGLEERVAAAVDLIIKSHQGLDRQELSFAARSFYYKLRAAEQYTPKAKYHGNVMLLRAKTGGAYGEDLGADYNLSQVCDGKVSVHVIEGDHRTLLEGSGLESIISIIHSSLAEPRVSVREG
Luciferin 4-monooxygenase, sequence (P08659 whole entry): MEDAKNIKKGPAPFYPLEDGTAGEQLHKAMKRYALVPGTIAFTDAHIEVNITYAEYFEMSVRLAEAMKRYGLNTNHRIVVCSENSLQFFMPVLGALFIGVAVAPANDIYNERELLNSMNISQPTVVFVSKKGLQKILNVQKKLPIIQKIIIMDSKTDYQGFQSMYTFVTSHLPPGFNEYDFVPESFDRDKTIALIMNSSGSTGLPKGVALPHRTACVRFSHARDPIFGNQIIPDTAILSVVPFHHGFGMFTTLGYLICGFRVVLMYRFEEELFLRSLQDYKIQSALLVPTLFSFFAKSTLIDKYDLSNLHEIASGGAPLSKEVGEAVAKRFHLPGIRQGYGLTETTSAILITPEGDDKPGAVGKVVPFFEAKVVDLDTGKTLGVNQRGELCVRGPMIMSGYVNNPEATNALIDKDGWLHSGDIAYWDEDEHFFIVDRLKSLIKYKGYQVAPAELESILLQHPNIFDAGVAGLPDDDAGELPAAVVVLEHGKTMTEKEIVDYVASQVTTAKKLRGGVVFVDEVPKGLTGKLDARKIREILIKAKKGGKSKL
Cytochrome P450 2C19, sequence (P33261 whole entry): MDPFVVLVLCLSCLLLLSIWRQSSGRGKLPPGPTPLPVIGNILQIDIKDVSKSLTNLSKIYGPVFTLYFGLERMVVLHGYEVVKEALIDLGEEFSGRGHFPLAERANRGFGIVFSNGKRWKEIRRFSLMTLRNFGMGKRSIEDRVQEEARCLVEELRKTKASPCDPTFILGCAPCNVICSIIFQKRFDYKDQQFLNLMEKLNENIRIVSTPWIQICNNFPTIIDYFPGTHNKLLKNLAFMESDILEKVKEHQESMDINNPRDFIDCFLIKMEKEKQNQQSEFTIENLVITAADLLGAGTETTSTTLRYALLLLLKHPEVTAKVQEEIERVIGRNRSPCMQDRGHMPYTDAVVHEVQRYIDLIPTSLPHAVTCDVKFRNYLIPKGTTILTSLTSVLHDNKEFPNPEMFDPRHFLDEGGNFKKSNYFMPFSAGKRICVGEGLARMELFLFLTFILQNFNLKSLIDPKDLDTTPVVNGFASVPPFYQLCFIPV

COc1ccc2cc(C(N)=O)/c(=N\NC(=O)c3ccccc3)oc2c1
EC50 [1]: 9.51 µM (inconclusive) | EC50 [2]: 8.54 µM (active) | EC50 [3]: 7.7 µM (active) | AC50 (HEK293): 2.83 µM (active)

N#CCSc1nc2cc(C(=O)N3CCC(C(N)=O)CC3)ccc2c2nc3ccccc3n12
IC50 (H9c2): > 79 µM (inactive)

CCOCCOC(=O)c1[nH]c2c(c1C)C(=O)CC(c1cccs1)C2 (configuration not stated)
IC50 [4]: > 80 µM (inactive)

O=C(O)c1ccc(N/N=C/c2cc3cc4c(cc3nc2Cl)OCCO4)cc1
AC50 (HEK293): 1.69 µM (active)

c1ccc(C[C@H]2CN=C(Nc3ccccc3)N2CCCC2CCCC2)cc1
CC50 [5]: > 40 µM (active)

O=C1c2cc([N+](=O)[O-])ccc2-c2ncccc21
EC50 (BJ [6]): 24.4 µM (active) | EC50 (BJ [7]): > 150 µM (not active) | EC50 (BJ [8]): > 150 µM (not active) | EC50 [9]: > 150 µM (not active) | AC50 [10]: 36.7 µM (active) | EC50 (Protein RecA): 11.1 µM (active)

CCN1C(=O)[C@H]2[C@H]3CN=C(SCc4ccc(C#N)cc4)N3[C@@](Cc3ccccc3)(C(=O)OC)[C@H]2C1=O
IC50 (H9c2): > 79 µM (inactive)

O=C(/C=C/c1ccc(Br)cc1)NC(=S)NNC(=O)c1ccco1
EC50 [11]: 0.343 µM (active) | EC50 (Streptococcus): 0.887 µM (active) | CC50 (Vero): > 25 µM (active)

N#Cc1c(N)n(CCOC(=O)c2ccc(Cl)cc2)c2nc3ccccc3nc12
AC50 [10]: 3.18 µM (active) | EC50 (Protein RecA): 1.8 µM (active)

S=C(Nc1ccc(Nc2ccccc2)cc1)Nc1ccccn1
CC50 [5]: > 40 µM (active) | AC50 (INS1): 6.34 µM (active) | IC50 [12]: > 66 µM (inactive) | IC50 [13]: > 66 µM (inactive)

O=c1[nH]n(Cc2ccccc2)c(=O)c2ccccc12
IC50 (H9c2): > 79 µM (inactive)

Cc1ccc(OCc2cc(C(=O)N(C)Cc3cnc4ccccn34)no2)cc1C
CC50 [5]: > 40 µM (active)

O=C(COC(=O)Cc1nnc(O)c2ccccc12)Nc1c(Br)cc([N+](=O)[O-])cc1Br
IC50 (H9c2): > 79 µM (inactive)

CCc1ccc2nc(N(CCCN(C)C)C(=O)c3ccc4c(c3)OCCO4)sc2c1
EC50 [14]: 0.214 µM (active) | EC50 [15]: 8.8 µM (active) | CC50 (Vero): > 25 µM (active)

CC(=O)O[C@H]1C(=O)[C@]2(C)[C@H]([C@H](OC(=O)c3ccccc3)[C@]3(O)C[C@H](OC(=O)[C@H](O)[C@@H](NC(=O)c4ccccc4)c4ccccc4)C(C)=C1C3(C)C)[C@]1(OC(C)=O)CO[C@@H]1C[C@@H]2O
IC50 [4]: > 80 µM (inactive)

O=C(CN(c1ccc2c(c1)OCCO2)S(=O)(=O)c1ccccc1)Nc1ccc2c(c1)OCO2
IC50 (H9c2): > 79 µM (inactive)

CCOc1cc(C2C(C#N)=C(N)Oc3[nH]nc(CC)c32)ccc1OCCN1CCOCC1 (configuration not stated)
AC50 [10]: 27.2 µM (active) | EC50 (Protein RecA): 7.2 µM (active)

C[C@@H]1CN([C@H](C)CO)C(=O)c2cc(C#Cc3ccncc3)cnc2O[C@@H]1CN(C)S(=O)(=O)c1ccccc1F
AC50 [16]: 30 µM (active) | AC50 [17]: 25.1 µM (active)

OCCCNCc1ccc(N(c2ccccc2)c2ccccc2)cc1
CC50 (Vero): > 25 µM (active)

O=C(NN=Cc1ccc(N(CCCl)CCCl)cc1)c1cccnc1
AC50 (HEK293): 1.08 µM (active)

O=C1C=C(c2ccc3ncccc3c2)C[C@@H](c2ccc3c(c2)OCO3)C1
IC50 [4]: > 80 µM (inactive)

CCCCCCCCC[n+]1cccc2c3ccccc3ccc21
EC50 [18]: 67.9 µM (active) | EC50 [19]: 64.7 µM (active) | EC50 [20]: 0.868 µM (active) | EC50 [21]: 0.798 µM (active) | IC50 [4]: 49.8 µM (inactive) | AC50 (Cytochrome P450 2C19): 20 µM (inconclusive)

CC1CCCN(CCCNC(=O)c2ccc3c(c2)N(Cc2cccc(Cl)c2)C(=O)c2ccccc2[S+]3[O-])C1 (configuration not stated)
CC50 (Vero): > 25 µM (active)

Cn1c(=O)c2c(nc(NCc3ccc4c(c3)OCO4)n2C)n(C)c1=O
IC50 (H9c2): 36.1 µM (inactive)

CCOC(=O)c1cc(-c2ccc(/C=N\n3cnnc3)o2)ccc1Cl
IC50 (H9c2): > 79 µM (inactive)

COc1cc(C#Cc2c(-c3cncn3C)n(C)c3ccc(-c4cnc(N5CCOCC5)nc4)cc23)cc(OC)c1
CC50 [5]: 29.3 µM (active)

Cc1ccc(S(=O)(=O)Nc2cccc(-c3ccc4nncn4n3)c2)cc1
IC50 [4]: > 80 µM (inactive) | IC50 (Fatty acid synthase [22]): 15.7 µM (active) | IC50 (Fatty acid synthase [23]): 21.3 µM (inactive)

COc1cc(-c2nnc(-c3cc(OC)c(OC)c(OC)c3)o2)cc(OC)c1OC
EC50 [18]: > 112 µM (not active) | EC50 [19]: 41 µM (active) | IC50 (H9c2): > 79 µM (inactive)

COCc1n[nH]c2c1C(c1ccccc1OC)C(C#N)=C(N)O2 (configuration not stated)
AC50 [10]: 22 µM (active) | EC50 (Protein RecA): 4.77 µM (active)
